The values that follow are results of earlier work, collected in patent publication US20210007979A1 (FULTON MEDICINAL S.P.A., priority 2018, published 2021).

Counter-ions that a name gives are not always drawn.

Assay in data set [1]: not given
The source holds these as a separate data set.

Regarding `CCCc1nn(C)c2c(=O)[nH]c(-c3cc(S(=O)(=O)N4CCN(C)CC4)ccc3OCC)nc12` [sildenafil citrate, Sildenafil citrate], the Solubility in water result is on record as “sparingly soluble”. For the same compound, in data set [1], the “Permeability of the oral mucosae” value was “low permeability”.
